# Reference: patent publication US9321804B2, “Synthesis and use of anti-tumor drug LQC-Y” (Beijing University of Chinese Medicine, priority 2011, dated 2016)
# “Also recorded” adds a separate entry of the source. Structures can show the parent of a compound that is named as a salt.
# Legend:
# S180 sarcoma of mice [1] = assay: Tumor inhibiting effect of LQC-Y3 on tumor bearing S180 mice
# Experimental: (§1) The S180 mice that had been inoculated for 7 days were killed by breaking the neck thereof and ascites was taken from the mice respectively in an aseptic environment and the ascites was washed using RPMI1640 culture medium for 2 times and then made into a 2×10^7/ml cell suspension using aseptic physiological saline. Then the obtained S180 cell suspension was inoculated hypodermically at the right axillary of mice, 0.1 ml for each mouse and 50 mice total, to establish the solid tumor model.
# (§2) 60 mice were divided into 2 categories, including 6 groups, according to the random number table method, i.e. normal control group of the first category, and S180 solid tumor groups of the second category which included positive (cyclophosphamide) control group, negative control group, small dosage group, middle dosage group and large dosage group, 10 mice for each group. The experiment was repeated for 3 times.
# LQC-Y3 was prepared using 0.5% CMC-Na. The dosage of the small dosage group was 75 mg/Kg, the dosage of the middle dosage group was 150 mg/Kg, and the dosage of the large dosage group was 300 mg/kg. Equal volume of 0.5% CMC-Na was injected into the mice of the negative control group and cyclophosphamide injection 0.02 g/(Kg.d) was injected into the mice of the positive control group. These medicines were administrated 0.1 ml per mouse by intraperitoneal injection every the other day continuously for 15 days. During this period, the common behavior, hair, excrement and so on were observed daily. The mice that had been inoculated with S180 by hypodermic inoculation were killed by breaking the neck thereof after 24 h after the last administration and the tumor, liver and spleen were then taken.
# (§3) The weight of the solid tumor group mice were measured after all the administration was finished and then the mice were killed. The spleens and the livers thereof were weighed by an electronic balance. The spleen index was calculated as the spleen weight of a mouse (mg)/the body weight of a mouse (g) and the liver index was calculated as the liver weight of a mouse (100 g)/the body weight of a mouse (g).
# (§4) The solid tumor negative control group mice were weighed on the next day after the administration was finished (the eyeballs of the mice were removed to bleed and the serum was collected for subsequent experimental use). Then the mice were killed by breaking the neck thereof. The tumor tissues were taken out and weighed by an electronic balance to calculate the tumor inhibiting ratio.
# (§5) All the data were statistically analyzed using SPSS11.0 software pack. The comparison of the enumeration data was carried out with X^2 test. P<0.05 had statistical significance.
# S180 sarcoma of mice [2] = assay: Tumor inhibiting effect of LQC-Y2 in tumor bearing S180 mice
# Experimental: as §1, with “[…] /ml” for “2×10^7/ml”
# as §2
# LQC-Y2 was made into an emulsion using corn oil. The dosage of the small dosage group was 75 mg/Kg, the dosage of the middle dosage group was 150 mg/Kg, and the dosage of the large dosage group was 300 mg/kg. Equal volume of corn oil was injected into the mice of the negative control group, cyclophosphamide injection 0.02 g/(Kg.d) was injected into the mice of the positive control group. These medicines were administrated 0.1 ml per mouse by intraperitoneal injection every the other day continuously for 15 days. During this period, the common behavior, hair and excrement and so on were observed daily. The mice that had been inoculated with S180 by hypodermic inoculation were killed by breaking the necks thereof after 24 h after the last administration and the tumor, liver and spleen were then taken.
# as §3, with “over” for “finished”, “mouse(g)” for “mouse (g)”, “mouse(100” for “mouse (100”, “mouse(g).” for “mouse (g).”
# as §4, with “tumor-inhibiting” for “tumor inhibiting”
# as §5
# [3] = test system: Human hepatoma carcinoma cells Bel7402; assay: Proliferation of human hepatoma carcinoma cells Bel7402 by MTT; type: cell-based; conditions: for 24 h inhibition ratio (%): Bel7402 cells; for inhibiting effect on the proliferation of Bel7402 cells: cultured in vitro, 10-40 μg/ml
# Experimental: Human hepatoma carcinoma cells Bel7402 were recovered and subcultured using a culture flask. The preparation of the experiment was started when the cell growth entered into the exponential growth phase. The cells were then digested using pancreatic enzyme which had been filtrated at an increased pressure to prepare the cell suspension. After that the suspension was dyed for 3 min with 0.4% trypan blue. Then a blood cell counting plate was used to count the living cells which were not dyed and the dead cells which were dyed to blue. The number of the living cells identified by trypan blue was more than 98%.
# Three kinds of cells which were in the exponential growth phase were inoculated at the density of 1×10^4/ml, to a 96-well plate, 200 μl for each well. Then the plate was put in a 37° C. 5% CO2 incubation box to be cultured for 24 h. The cultivation liquid was sucked away and 200 μl LQC-Y solutions of different concentrations were added thereinto (prepared with DMEM cultivation liquid containing 4% calf serum and the final concentration of which respectively were 10 μg, 20 μg, 40 μg), 4 parallel wells for each concentration. Supernatant cultivation liquid 100 μl was sucked away carefully from each well after being cultured for 24 h and 48 h, and MTS 20 μl was added into each well and homogeneously mixed. The resultant liquid was cultured in a 37° C. 5% CO2 incubation box for a further 1 h. An enzyme-labeling quantitative instrument was used to measure the absorbance at 492 nm. The experiment was repeated for 3 times and then an inhibition ratio was calculated.
# The inhibition ratio of cell proliferation (%)=[(average OD value of control group-average OD value of the administration group)/average OD value of control group]×100%
# [4] = test system: Human hepatoma carcinoma cells Bel7402; assay: as above; type: cell-based; conditions: 40 μg/ml
# ICR white mice = assay: Acute toxic experiment of mice by oral administration; type: in vivo; parameters: key to Animal reaction in 14 days after the administration: Appearance / Animal reaction in 14 days after the administration: Behavior / Animal reaction in 14 days after the administration: Hair / Animal reaction in 14 days after the administration: Respiration / Animal reaction in 14 days after the administration: Posture / Animal reaction in 14 days after the administration: Reaction: ✓ means normal; conditions: for Animal reaction in 14 days after the administration: Death: 10 animals; for Animal reaction in 14 days after the administration: Death / Animal reaction in 14 days after the administration: Appearance / Animal reaction in 14 days after the administration: Behavior / Animal reaction in 14 days after the administration: Hair / Animal reaction in 14 days after the administration: Posture / Animal reaction in 14 days after the administration: Reaction / Animal reaction in 14 days after the administration: Respiration: oral 3 x 2000 mg/kg (6000 mg/kg) in one day
# Experimental: 1. Experimental Project: Acute Toxic Experiment of Mice by Oral Administration
# ICR white mice (half female and half male, 18-22 g, experiment animal certificate No.: SCXK (Jing) 2006-0009);
# LQC-Y3 (white powder (self prepared); and LQC-Y3 5000 mg was dissolved into 0.5% sodium carboxymethyl cellulose 100 ml and then suspended by supersonic wave. The suspension was used in situ).
# The qualified animals were quarantined and weighed before the administration. Then the animals were divided into groups randomly by weight. The intragastric administration tool for mice was used to carry out the intragastric administration. The mice were fasted but not water-deprived (continuously for 14 h) overnight before being administrated. The mice were administrated at 9:00 AM for the first time (2000 mg/kg) on the present administration day and observed continuously for 1 h. The mice were administrated for the second time (2000 mg/kg) at an interval of 6 h since the first administration and observed continuously for 1 h. The mice were administrated for the third time (2000 mg/kg) at an interval of 6 h since the second administration, observed continuously for 1 h and then the mice were fed.
# [5] = S180 Balb/C mice, cyclophosphamide 0.02 g/(Kg.d) i.p., 15 days
# [6] = S180 mice, cyclophosphamide 0.02 g/(Kg.d) i.p., 15 days
# [7] = S180 Balb/C mice, large dosage 300 mg/kg i.p. every other day, 15 days
# [8] = S180 Balb/C mice, middle dosage 150 mg/Kg i.p. every other day, 15 days
# [9] = S180 Balb/C mice, small dosage 75 mg/Kg i.p. every other day, 15 days
smiles,measurement,setting,value
"O=P1(N(CCCl)CCCl)NCCCO1 (stereo not shown) [Cyclophosphamide, reference compound]",liver index compared with the negative control group,"S180 sarcoma of mice [1]; LQC-Y3 dosage groups, cyclophosphamide 0.02 g/(Kg.d)",smaller than those of the negative control group
same,Tumor inhibiting ratio (%),S180 sarcoma of mice [1]; [5],73.40%
same,Tumor weight (g),S180 sarcoma of mice [1]; [5],0.25 ± 0.16^(4) g
same,Weight growth (g),S180 sarcoma of mice [1]; [5],6.90 ± 2.04^(1)(3) g
same,Liver index (100 g/g),S180 sarcoma of mice [1]; [6],5.19 ± 0.33 100 g/g
same,liver index compared with the negative control group,"S180 sarcoma of mice [2]; LQC-Y2 dosage groups, cyclophosphamide 0.02 g/(Kg.d)",smaller than those of the negative control group
same,Tumor inhibiting ratio (%),S180 sarcoma of mice [2]; [5],88.55%
same,Tumor weight (g),S180 sarcoma of mice [2]; [5],0.15 ± 0.13^(4) g
same,Weight growth (g),S180 sarcoma of mice [2]; [5],8.98 ± 3.80^(1)(3) g
same,Spleen index (100 g/g),S180 sarcoma of mice [2]; [6],5.29 ± 0.47^(1)(4) 100 g/g
"Cc1nc(C)c(COC(=O)CCC(C)C2CCC3C4C(O)CC5CC(O)CCC5(C)C4CC(O)C23C)nc1C (stereo not shown) [LQC-Y1, (3,5,6-trimethyl pyrazine-2-yl)methyl-4-(3,7,12-trihydroxy-10,13-dimethylhexadecahydro-1H-cyclopenta[a]phenanthren-17-yl)pentanoate]",24 h inhibition ratio (%),[3]; 10 μg/ml,67.39%
same,24 h inhibition ratio (%),[3]; 20 μg/ml,76.66%
same,inhibiting effect on the proliferation of Bel7402 cells,[3],evident inhibiting effect
same,24 h inhibition ratio (%),[4],86.44%
"Cc1nc(C)c(COC(=O)C23CCC(C)(C)CC2C2=CCC4C5(C)CCC(O)C(C)(C)C5CCC4(C)C2(C)CC3)nc1C (stereo not shown) [LQC-Y3, (3,5,6-trimethyl pyrazine-2-yl)methyl-10-hydroxy-2,2,6a,6b,9,9,12a-heptamethyl-1,2,3,4,4a,5,6,6a,6b,7,8,8a,9,10,11,12,12a,12b,13,14b-eicosahydropicene-4a-carboxylate]",effect on the growth of the S180 mice sarcoma,S180 sarcoma of mice [1]; 75-300 mg/kg i.p.,can Notably Inhibit the Growth; also recorded: inhibit the growth of S180 tumor effectively
same,Tumor inhibiting ratio (%),S180 sarcoma of mice [1]; [7],50.0%
same,Tumor weight (g),S180 sarcoma of mice [1]; [7],0.47 ± 0.23^(3) g
same,Tumor inhibiting ratio (%),S180 sarcoma of mice [1]; [8],37.23%
same,Tumor weight,S180 sarcoma of mice [1]; [8],0.59 ± 0.28 g
same,Tumor inhibiting ratio (%),S180 sarcoma of mice [1]; [9],33.98%
same,Tumor weight,S180 sarcoma of mice [1]; [9],0.63 ± 0.30 g
same,effect on the growth of the S180 sarcoma mice's weight,"S180 sarcoma of mice [1]; mouse, in vivo",no effect
same,24 h inhibition ratio (%),[3]; 10 μg/ml,34.53%
same,24 h inhibition ratio (%),[3]; 20 μg/ml,89.07%
same,inhibiting effect on the proliferation of Bel7402 cells,[3],evident inhibiting effect
same,toxic reaction,"ICR white mice; mice, maximum dosage of 6000 mg/kg per day, oral, observed continuously for 14 days, 6000 mg/kg/day",No toxic reaction; also recorded: no toxic or side effect
same,Animal reaction in 14 days after the administration: Death,ICR white mice; ♀ ICR mice,0
same,Animal reaction in 14 days after the administration: Appearance,ICR white mice; ♀ ICR mice,✓
same,Animal reaction in 14 days after the administration: Behavior,ICR white mice; ♀ ICR mice,✓
same,Animal reaction in 14 days after the administration: Hair,ICR white mice; ♀ ICR mice,✓
same,Animal reaction in 14 days after the administration: Posture,ICR white mice; ♀ ICR mice,✓
same,Animal reaction in 14 days after the administration: Reaction,ICR white mice; ♀ ICR mice,✓
same,Animal reaction in 14 days after the administration: Respiration,ICR white mice; ♀ ICR mice,✓
same,Animal reaction in 14 days after the administration: Death,ICR white mice; ♂ ICR mice,0
same,Animal reaction in 14 days after the administration: Appearance,ICR white mice; ♂ ICR mice,✓
same,Animal reaction in 14 days after the administration: Behavior,ICR white mice; ♂ ICR mice,✓
same,Animal reaction in 14 days after the administration: Hair,ICR white mice; ♂ ICR mice,✓
same,Animal reaction in 14 days after the administration: Posture,ICR white mice; ♂ ICR mice,✓
same,Animal reaction in 14 days after the administration: Reaction,ICR white mice; ♂ ICR mice,✓
same,Animal reaction in 14 days after the administration: Respiration,ICR white mice; ♂ ICR mice,✓
same,24 h inhibition ratio (%),[4],99.16%
"Cc1nc(C)c(COC(=O)C2(C)CCC3(C)CCC4(C)C(=CC(=O)C5C6(C)CCC(O)C(C)(C)C6CCC54C)C3C2)nc1C (stereo not shown) [LQC-Y4, (3,5,6-trimethyl pyrazine-2-yl)methyl-10-hydroxy-2,4a,6a,6b,9,9,12a-heptamethyl-13-oxo-1,2,3,4,4a,5,6,6a,6b,7,8,8a,9,10,11,12,12a,12b,13,14b-eicosahydropicene-2-carboxylate]",24 h inhibition ratio (%),[3]; 10 μg/ml,39.31%
same,24 h inhibition ratio (%),[3]; 20 μg/ml,44.58%
same,inhibiting effect on the proliferation of Bel7402 cells,[3],evident inhibiting effect
same,24 h inhibition ratio (%),[4],94.42%
"Cc1nc(C)c(COC(=O)c2cc(O)c3c(c2)C(=O)c2cccc(O)c2C3=O)nc1C [LQC-Y6, (3,5,6-trimethyl pyrazine-2-yl)methyl-4,5-dihydroxy-9,10-dioxo-9,10-dihydroanthracene-2-carboxylate]",24 h inhibition ratio (%),[3]; 10 μg/ml,26.75%
same,24 h inhibition ratio (%),[3]; 20 μg/ml,67.23%
same,inhibiting effect on the proliferation of Bel7402 cells,[3],inhibiting effect
same,24 h inhibition ratio (%),[4],81.21%
"Cc1nc(C)c(COC(=O)C2=CC(O)C(O)C(O)C2)nc1C (stereo not shown) [LQC-Y10, (3,5,6-trimethyl pyrazine-2-yl)methyl 3,4,5-trihydroxycyclohexyl-1-ene formate]",24 h inhibition ratio (%),[3]; 20 μg/ml,7.82%
same,inhibiting effect on the proliferation of Bel7402 cells,[3],inhibiting effect
same,24 h inhibition ratio (%),[4],5.69%
